The target in one assay is T1, menin (Homo sapiens, UniProt O00255, T541A).
T1 construct: Menin (a.a. 1-610-6×his tag)
T1 sequence (O00255 with tags, fused parts or gaps T541A): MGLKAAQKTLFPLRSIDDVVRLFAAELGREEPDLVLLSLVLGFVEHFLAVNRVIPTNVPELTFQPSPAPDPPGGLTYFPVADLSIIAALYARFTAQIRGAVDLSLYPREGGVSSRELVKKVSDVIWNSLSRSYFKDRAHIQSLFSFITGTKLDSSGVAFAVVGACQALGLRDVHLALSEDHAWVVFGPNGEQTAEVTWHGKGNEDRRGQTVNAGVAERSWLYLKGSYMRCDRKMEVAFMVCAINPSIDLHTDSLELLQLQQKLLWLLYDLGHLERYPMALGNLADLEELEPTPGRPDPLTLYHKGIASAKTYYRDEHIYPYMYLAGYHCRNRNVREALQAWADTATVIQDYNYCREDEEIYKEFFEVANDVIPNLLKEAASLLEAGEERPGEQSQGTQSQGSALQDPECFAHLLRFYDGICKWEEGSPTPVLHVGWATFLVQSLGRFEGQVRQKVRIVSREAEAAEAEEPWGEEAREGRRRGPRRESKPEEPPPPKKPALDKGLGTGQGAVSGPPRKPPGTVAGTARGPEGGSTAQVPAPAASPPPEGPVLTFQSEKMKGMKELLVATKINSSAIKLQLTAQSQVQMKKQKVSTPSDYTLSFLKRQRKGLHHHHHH
Description: Menin/MLL homogenous time-resolved fluorescence (HTRF) assay. As to conditions: location 2; read-out: (2) location 2 Menin HTRF assay (IC50 (nM)). Type of assay: binding. The method, boiled down: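 Displacement of 75 nM FITC-MBM1 from terbium-cryptate-labeled His-tagged menin 1-610 ([…]) was read as the 520/490 nm HTRF ratio. Compound (11-point, 3-fold series) got 5 min with menin before peptide, then 15 min at ambient; 0.5% DMSO, Tris pH 7.5.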

The subject of the next assay is K562. Description: Proliferation assay B (spheroid assay) K562 control cell line. Type of assay: cell-based. The conditions noted are these: Homo sapiens, 192 h; K562 cells (MLL wildtype control), confluence at day 8; read-out: (3b) Spheroid assay K562 Assay B. How it is done:
3b) Proliferation Assay B
The anti-proliferative effect of menin/MLL protein/protein interaction inhibitor test compounds was assessed in human leukemia cell lines. The cell lines MV-4-11 and MOLM14 harbor MILL translocations and express the MILL fusion proteins MLL-AF4 and MLL-AF9, respectively, as well as the wildtype protein from the second allele. […] K562 was used as a control cell line containing two MLL wildtype alleles in order to exclude compounds that display general cytotoxic effects.
MV-4-11 and MOLM14 were cultured in RPMI-1640 (Sigma Aldrich) supplemented with 10% fetal bovine serum (HyClone), 2 mM L-glutamine (Sigma Aldrich) and 50 μg/ml gentamycin (Gibco). K562 were propagated in RPMI-1640 (Sigma Aldrich) supplemented with 20% fetal bovine serum (HyClone), 2 mM L-glutamine (Sigma Aldrich) and 50 μg/ml gentamycin (Gibco).
In order to assess the anti-proliferative effects, 1,500 MV-4-11, 300 MOLM14 cells or 750 K562 cells were seeded in 200 μl media per well in 96-well round bottom, ultra-low attachment plates (Costar, catalogue number 7007). Cell seeding numbers were chosen based on growth curves to ensure linear growth throughout the experiment. Test compounds were added at different concentrations and the DMSO content was normalized to 0.3%. Cells were incubated for 8 d at 37° C. and 5% CO2. Spheroid like growth was measured in real-time by live-cell imaging (IncuCyteZOOM, Essenbio, 4× objective) acquiring images at day 8. Confluence (%) as a measure of spheroid size was determined using an integrated analysis tool.
In order to determine the effect of the test compounds over time, the confluence in each well as a measure of spheroid size, was calculated. Confluence […] at the beginning of the experiment (t=0) was used as baseline for the calculation.
Absolute IC50 values were calculated as percent change in confluence as follows:
LC=Low Control: cells treated with 1 μM of the cytotoxic agent staurosporin
HC=High Control: Mean confluence (%) (DMSO treated cells) % Effect=100−(100*(Sample−LC)/(HC−LC))
To determine the IC50 a curve is fitted to the plot of % Effect vs Log 10 compound concentration using a sigmoidal fit with a variable slope and fixing the maximum to 100% and the minimum to 0%.

The text below walks through data of patent US11396517B1, “Exo-aza spiro inhibitors of menin-MLL interaction” (Janssen Pharmaceutica NV, priority 2017, dated 2022).

Regarding `FC(F)(F)Cc1cc2c(N3CCC4(CC(Nc5ccc6cc[nH]c6c5)C4)C3)ncnc2s1` (mixture of isomers) [Compound 311], at menin, the IC50 worked out at 70.5 nM. Regarding `O=c1[nH]c2cc(CNC3CCC4(C3)CN(c3ncnc5sc(CC(F)(F)F)cc35)C4)ccc2o1` (single isomer, unassigned) [Compound 58], the IC50 was found to be 2.9 nM on menin and 14100 nM in the assay with K562. In the case of `Cn1c(=O)[nH]c2cc(CNC3CCC4(C3)CN(c3ncnc5sc(CC(F)(F)F)cc35)C4)ccc21` (centres unmarked) [Compound 54], the IC50 on menin came out at 1.8 nM. Turning to `CNC(=O)c1ccc(NC2CC3(CCN(c4ncnc5sc(CC(F)(F)F)cc45)C3)C2)cc1` (centres unmarked) [Compound 93], on menin, the IC50 stood at 5.8 nM.
